Measurements from patent US20190134005A1 (BioMarin Pharmaceutical Inc., priority 2016, published 2019).
Like-named read-outs stand apart in the source and are kept apart here.

Molecular target: T1, human CGT (Homo sapiens, UniProt Q16880)
T1 sequence (Q16880 21-541): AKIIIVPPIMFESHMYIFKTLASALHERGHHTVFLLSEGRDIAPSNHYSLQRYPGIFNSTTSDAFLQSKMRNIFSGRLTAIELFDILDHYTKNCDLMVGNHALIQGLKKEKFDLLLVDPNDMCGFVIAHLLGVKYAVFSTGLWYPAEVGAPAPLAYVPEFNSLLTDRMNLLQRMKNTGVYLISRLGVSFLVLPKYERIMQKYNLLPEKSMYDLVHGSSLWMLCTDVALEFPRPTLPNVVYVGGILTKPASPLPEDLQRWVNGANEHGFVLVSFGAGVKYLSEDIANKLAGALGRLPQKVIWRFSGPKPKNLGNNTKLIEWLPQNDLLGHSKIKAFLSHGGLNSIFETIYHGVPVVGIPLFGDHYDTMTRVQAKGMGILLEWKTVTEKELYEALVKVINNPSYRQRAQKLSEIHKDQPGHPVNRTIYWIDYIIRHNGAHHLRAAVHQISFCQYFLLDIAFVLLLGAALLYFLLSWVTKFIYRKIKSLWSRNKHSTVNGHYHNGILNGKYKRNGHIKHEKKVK
Assay: Assay 1: CGT Enzymatic Assay (RapidFire/MS/MS, 0.01% Tween 80)
Type: biochemical
Conditions: Table 1, Compounds of Formula (I) and Formula (II), CGT enzymatic assay, read-out: IC50

[1] = C6-NBD-dihydro-galactosylceramide readout

| IC50 [µM] | IC50 [1] [µM] | Structure (SMILES) |
| --- | --- | --- |
| < 1 |  | O=C1N(c2ccc(Cl)cc2)[C@H](C2CCC2)C(O)(c2cccc(OC(F)(F)F)c2)N1c1ccc(Cl)cc1 (stereo partly drawn) [Example 191-2, (5R)-1,3-bis(4-chlorophenyl)-5-cyclobutyl-4-hydroxy-4-(3-(trifluoromethoxy)phenyl)imidazolidin-2-one] |
| 1 to 10 |  | C[C@@]1(C(F)(F)F)N(c2ccc(Cl)cc2)C(=O)N(c2ccc(Cl)cc2)C1(O)c1cccc(C#N)c1 (single isomer, unassigned) [Example 177-2] |
| < 1 |  | O=C1N(c2ccc(Cl)cc2)[C@]2(CCOC2)[C@](O)(c2cccc(OC(F)(F)F)c2)N1c1ccc(Cl)cc1 [Compound 234-1, (4R,5S)-1,3-bis(4-chlorophenyl)-4-hydroxy-4-(3-(trifluoromethoxy)phenyl)-7-oxa-1,3-diazaspiro[4.4]nonan-2-one] |
| < 1 |  | CCc1cccc(C2(O)[C@@H](C)N(c3ccc(Cl)cc3)C(=O)N2c2ccc(Cl)cc2)c1 (stereo partly drawn) [Compound 69-2, (5R)-1,3-bis(4-chlorophenyl)-4-(3-ethylphenyl)-4-hydroxy-5-methylimidazolidin-2-one] |
| < 1 |  | CC[C@H]1N(c2ccc(Cl)cc2)C(=O)N(c2ccc(Cl)cc2)C1(O)c1cccc(C)c1 (stereo partly drawn) [Compound 75-2, (5R)-1,3-bis(4-chlorophenyl)-5-ethyl-4-hydroxy-4-(m-tolyl)imidazolidin-2-one] |
| < 1 |  | Cc1ccc(N2C(=O)N(c3ccc(C)cc3)C(O)(c3cccc(C#N)c3)[C@H]2C)cc1 (single isomer, unassigned) [Compound 105-2] |
| < 1 |  | C[C@@H]1N(c2ccc(F)cc2)C(=O)N(c2ccc(F)cc2)C1(O)c1cccc(OC(F)(F)F)c1 (stereo partly drawn) [Compound 130-1, (5S)-1,3-bis(4-fluorophenyl)-4-hydroxy-5-methyl-4-(3-(trifluoromethoxy)phenyl)imidazolidin-2-one] |
| < 1 |  | CC[C@H]1N(c2ccc(Cl)cc2)C(=O)N(c2ccc(Cl)cc2)C1(O)c1cccc(OC(F)F)c1 (stereo partly drawn) [Compound 118-2, (5R)-1,3-bis(4-chlorophenyl)-4-(3-(difluoromethoxy)phenyl)-5-ethyl-4-hydroxyimidazolidin-2-one] |
| < 1 |  | CCC[C@@H]1N(c2ccc(Br)cc2)C(=O)N(c2ccc(Br)cc2)C1(O)c1cccc(CC)c1 (stereo partly drawn) [Compound 88-1, (5S)-1,3-bis(4-bromophenyl)-4-(3-ethylphenyl)-4-hydroxy-5-propylimidazolidin-2-one] |
| < 1 |  | O=C1N(c2ccc(Br)cc2)[C@H](C2CC2)C(O)(c2ccccc2)N1c1ccc(Br)cc1 (stereo partly drawn) [Compound 115-2, (5R)-1,3-bis(4-bromophenyl)-5-cyclopropyl-4-hydroxy-4-phenylimidazolidin-2-one] |

Second part, the compound before the results:

| Structure (SMILES) | IC50 [µM] | IC50 [1] [µM] |
| --- | --- | --- |
| O=C1N(c2ccc(Br)cc2)C(=O)C(O)(c2cccc3ccccc23)N1c1ccc(Br)cc1 (stereo not drawn) [Example 195, 1,3-bis(4-bromophenyl)-5-hydroxy-5-(naphthalen-1-yl)imidazolidine-2,4-dione] | > 50 |  |
| Cc1ccc(N2C(=O)N(c3ccc(C)cc3)C(O)(c3cccc(OC(F)(F)F)c3)C2C(C)C)cc1 (stereo not drawn) [Compound 235, 4-hydroxy-5-isopropyl-1,3-di-p-tolyl-4-(3-(trifluoromethoxy)phenyl)imidazolidin-2-one] | < 1 |  |
| Cc1ccc(N2C(=O)N(c3ccc(C#N)cc3)C3(COC3)C2(O)c2cccc(OC(F)(F)F)c2)cc1 (stereo not drawn) [Compound 277, 4-(8-hydroxy-6-oxo-7-(p-tolyl)-8-(3-(trifluoromethoxy)phenyl)-2-oxa-5,7-diazaspiro[3.4]octan-5-yl)benzonitrile] |  | < 1 |
| Cc1c(-c2cccc(C#N)c2)n(-c2ccc(Cl)cc2)c(=O)n1-c1ccc(Cl)cc1 [Example 3] | < 1 |  |
| O=C1N(c2ccc(Cl)cc2)C(c2ccccc2)C(O)(CO)N1c1ccc(Cl)cc1 (stereo not drawn) [Example 218, 1,3-bis(4-chlorophenyl)-4-hydroxy-4-(hydroxymethyl)-5-phenylimidazolidin-2-one] | 10 to 50 |  |
| Cc1ccc(N2C(=O)N(c3ccc(Cl)cc3)C3(COC3)C2(O)c2cccc(C#N)c2)cc1 (stereo not drawn) [Compound 298, 3-(5-(4-chlorophenyl)-8-hydroxy-6-oxo-7-(p-tolyl)-2-oxa-5,7-diazaspiro[3.4]octan-8-yl)benzonitrile] |  | < 1 |
| Cc1ccc(N2C(=O)N(c3ccc(Cl)cc3)C(O)(c3cccc(OC(F)(F)F)c3)C23COC3)cc1 (stereo not drawn) [Example 311, 7-(4-chlorophenyl)-8-hydroxy-5-(p-tolyl)-8-(3-(trifluoromethoxy)phenyl)-2-oxa-5,7-diazaspiro[3.4]octan-6-one] |  | < 1 |
| Cc1ccc(N2C(=O)N(c3ccc(C#N)cc3)C3(CCC3)C2(O)c2cccc(C#N)c2)cc1 (stereo not drawn) [Compound 280, 3-(5-(4-cyanophenyl)-8-hydroxy-6-oxo-7-(p-tolyl)-5,7-diazaspiro[3.4]octan-8-yl)benzonitrile] |  | < 1 |
| O=C1N(c2ccc(Cl)cc2)CC(O)(c2cc(Cl)cc(Br)c2)N1c1ccc(Cl)cc1 (stereo not drawn) [Compound 98, 4-(3-bromo-5-chlorophenyl)-1,3-bis(4-chlorophenyl)-4-hydroxyimidazolidin-2-one] | 1 to 10 |  |
| N#Cc1cccc(C2(O)N(c3ccc(Cl)cc3)C(=O)N(c3ccc(Cl)cc3)C23CCC3)c1 (stereo not drawn) [Compound 72, 3-(5,7-bis(4-chlorophenyl)-8-hydroxy-6-oxo-5,7-diazaspiro[3.4]octan-8-yl)benzonitrile] | < 1 |  |
| N#Cc1ccc(N2CC(O)(c3ccccc3)N(c3ccc(C#N)cc3)C2=O)cc1 (stereo not drawn) [Compound 111, 4,4′-(4-hydroxy-2-oxo-4-phenylimidazolidine-1,3-diyl)dibenzonitrile] | > 50 |  |
| CC1(C(F)(F)F)N(c2ccc(Cl)cc2)C(=O)N(c2ccc(Cl)cc2)C1(O)c1cccc(OC(F)(F)F)c1 (stereo not drawn) [Example 159, 1,3-bis(4-chlorophenyl)-4-hydroxy-5-methyl-4-(3-(trifluoromethoxy)phenyl)-5-(trifluoromethyl)imidazolidin-2-one] | < 1 |  |
| N#Cc1cccc(C2(O)N(c3ccc(Cl)cc3)C(=O)N(c3ccc(Cl)cc3)C23CCCC3)c1 (stereo not drawn) [Compound 135, 3-(1,3-bis(4-chlorophenyl)-4-hydroxy-2-oxo-1,3-diazaspiro[4.4]nonan-4-yl)benzonitrile] | < 1 |  |
| O=C1N(c2ccc(Br)cc2)CC(O)(c2ccccc2)N1c1ccccc1 (stereo not drawn) [Example 28, 1-(4-bromophenyl)-4-hydroxy-3,4-diphenylimidazolidin-2-one] | 10 to 50 |  |
| CC1N(c2ccc(Cl)cc2)C(=O)N(c2ccc(Cl)cc2)C1(O)c1cccc(Br)c1 (stereo not drawn) [Compound 94, 4-(3-bromophenyl)-1,3-bis(4-chlorophenyl)-4-hydroxy-5-methylimidazolidin-2-one] | < 1 |  |
| CC1(c2ccccc2)N(c2ccc(Cl)cc2)C(=O)N(c2ccc(Cl)cc2)C1(O)c1ccccc1 (stereo not drawn) [Compound 121, 1,3-bis(4-chlorophenyl)-4-hydroxy-5-methyl-4,5-diphenylimidazolidin-2-one] | 1 to 10 |  |
| O=C1N(c2ccc(C(F)(F)F)cc2)CC(O)(c2ccccc2)N1c1ccc(C(F)(F)F)cc1 (stereo not drawn) [Example 15, 4-hydroxy-4-phenyl-1,3-bis(4-(trifluoromethyl)phenyl)imidazolidin-2-one] | > 50 |  |
| Cc1ccc(N2C(=O)N(c3ccc(C)cc3)C(O)(c3cccc(OC(F)(F)F)c3)C23COC3)cc1 (stereo not drawn) [Compound 284, 8-hydroxy-5,7-di-p-tolyl-8-(3-(trifluoromethoxy)phenyl)-2-oxa-5,7-diazaspiro[3.4]octan-6-one] |  | < 1 |
| O=C1N(c2ccc(Cl)cc2)C2(CCC2)C(O)(c2cccc(OC(F)(F)F)c2)N1c1ccc(Cl)cc1 (stereo not drawn) [Compound 242, 5,7-bis(4-chlorophenyl)-8-hydroxy-8-(3-(trifluoromethoxy)phenyl)-5,7-diazaspiro[3.4]octan-6-one] | < 1 |  |
| COc1ccc(N2C(=O)N(c3ccc(OC)cc3)C(O)(c3cccc(C#N)c3)C2(C)C)cc1 (stereo not drawn) [Example 328, 3-(4-hydroxy-1,3-bis(4-methoxyphenyl)-5,5-dimethyl-2-oxoimidazolidin-4-yl)benzonitrile] |  | 1 to 10 |
| O=C1N(c2ccc(Br)cc2)C(=O)C(O)(C(F)(F)F)N1c1ccc(Br)cc1 (stereo not drawn) [Example 216, 1,3-bis(4-bromophenyl)-5-hydroxy-5-(trifluoromethyl)imidazolidine-2,4-dione] | > 50 |  |
| CCC1(O)C(c2ccccc2)N(c2ccc(Br)cc2)C(=O)N1c1ccc(Br)cc1 (stereo not drawn) [Example 45] | 1 to 10 |  |
| O=C1N(c2ccc(Cl)cc2F)C(=O)C(O)(c2ccccc2)N1c1ccc(Cl)cc1F (stereo not drawn) [Compound 155, 1,3-bis(4-chloro-2-fluorophenyl)-5-hydroxy-5-phenylimidazolidine-2,4-dione] | > 50 |  |
| O=C1N(c2ccc(Cl)cc2)CC(O)(c2cc(Cl)cc(Cl)c2)N1c1ccc(Cl)cc1 (stereo not drawn) [Compound 85, 1,3-bis(4-chlorophenyl)-4-(3,5-dichlorophenyl)-4-hydroxyimidazolidin-2-one] | 1 to 10 |  |
| CCCCC1(O)C(=O)N(c2ccc(Br)cc2)C(=O)N1c1ccc(Br)cc1 (stereo not drawn) [Compound 152, 1,3-bis(4-bromophenyl)-5-butyl-5-hydroxyimidazolidine-2,4-dione] | 50 to 100 |  |
| O=C1N(c2ccc(Br)cc2)C(=O)C(O)(c2ccc[nH]2)N1c1ccc(Br)cc1 (stereo not drawn) [Example 211, 1,3-bis(4-bromophenyl)-5-hydroxy-5-(1H-pyrrol-2-yl)imidazolidine-2,4-dione] | 10 to 50 |  |
